Assay results as given in US10336761B2, “TGFβ receptor antagonist” (BRISTOL-MYERS SQUIBB COMPANY, priority 2015, dated 2019).

target: HIS-TGFβR1 T204D (Homo sapiens (Human), UniProt P36897, T204D); test: HTRF probe-displacement assay, HIS-TGFβR1 T204D; type: binding; conditions: 1 hour at room temperature
Sequence (P36897 34-503 T204D): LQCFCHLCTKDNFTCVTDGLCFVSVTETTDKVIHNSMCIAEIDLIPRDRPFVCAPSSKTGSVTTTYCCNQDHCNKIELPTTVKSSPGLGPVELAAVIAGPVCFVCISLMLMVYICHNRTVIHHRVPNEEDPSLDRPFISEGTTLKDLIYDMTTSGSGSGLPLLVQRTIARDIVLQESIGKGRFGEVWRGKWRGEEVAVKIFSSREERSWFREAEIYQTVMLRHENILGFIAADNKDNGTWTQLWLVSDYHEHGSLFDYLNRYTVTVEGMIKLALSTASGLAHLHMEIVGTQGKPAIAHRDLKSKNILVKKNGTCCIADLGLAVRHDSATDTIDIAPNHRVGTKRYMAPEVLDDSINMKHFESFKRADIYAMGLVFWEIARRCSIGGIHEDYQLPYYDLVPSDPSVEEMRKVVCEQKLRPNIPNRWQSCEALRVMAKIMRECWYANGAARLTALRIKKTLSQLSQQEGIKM

| SMILES | IC50 [nM] |
| --- | --- |
| O=c1[nH]c2ccccc2n1C1CCN(Cc2ccn3nc(-c4ccccn4)nc(Nc4ccncc4F)c23)CC1 [Example 278, 1-[1-({4-[(3-fluoropyridin-4-yl)amino]-2-(pyridin-2-yl)pyrrolo[2,1-f][1,2,4]triazin-5-yl}methyl)piperidin-4-yl]-2,3-dihydro-1H-1,3-benzodiazol-2-one] | 1.8 |
| Cc1cccc(-c2nc(Nc3ccncc3F)c3ccc(C(=O)O)n3n2)n1 [Example 52, 4-[(3-fluoropyridin-4-yl)amino]-2-(6-methylpyridin-2-yl)pyrrolo[2,1-f][1,2,4]triazine-7-carboxylic acid] | 35 |
| COc1cccc(-c2nc(Nc3ccncc3F)c3c(CNCCN4CCCC4)ccn3n2)n1 [Example 119, 3-fluoro-N-[2-(6-methoxypyridin-2-yl)-5-({[2-(pyrrolidin-1-yl)ethyl]amino}methyl)pyrrolo[2,1-f][1,2,4]triazin-4-yl]pyridin-4-amine] | 63 |
| CCOC(=O)c1cc2c(Nc3ccncc3)nc(-c3cccc(C)n3)nn2c1 [Example 216, Ethyl 2-(6-methylpyridin-2-yl)-4-[(pyridin-4-yl)amino]pyrrolo[2,1-f][1,2,4]triazine-6-carboxylate] | 33 |
| CS(=O)(=O)Nc1cccc(-c2nc(Nc3ccncc3Cl)c3cccn3n2)n1 [Example 90, N-(6-{4-[(3-chloropyridin-4-yl)amino]pyrrolo[2,1-f][1,2,4]triazin-2-yl}pyridin-2-yl)methanesulfonamide] | 8.8 |
| COc1cccc(-c2nc(Nc3ccnc(C)c3)c3cccn3n2)n1 [Example 92, N-[2-(6-methoxypyridin-2-yl)pyrrolo[2,1-f][1,2,4]triazin-4-yl]-2-methylpyridin-4-amine] | 1500 |
| OC1CCC(NCc2ccn3nc(-c4ccccn4)nc(Nc4ccncc4F)c23)CC1 (stereo not drawn) [Example 236, 4-[({4-[(3-fluoropyridin-4-yl)amino]-2-(pyridin-2-yl)pyrrolo[2,1-f][1,2,4]triazin-5-yl}methyl)amino]cyclohexan-1-ol] | 2.2 |
| FC(F)(F)c1cccc(-c2nc(Nc3ccnc(-c4cc[nH]n4)c3)c3cccn3n2)n1 [Example 230, 2-(1H-pyrazol-3-yl)-N-{2-[6-(trifluoromethyl)pyridin-2-yl]pyrrolo[2,1-f][1,2,4]triazin-4-yl}pyridin-4-amine] | 100 |
| Fc1cnccc1Nc1nc(-c2ccc(F)c(C(F)F)n2)nn2cccc12 [Example 66, N-{2-[6-(difluoromethyl)-5-fluoropyridin-2-yl]pyrrolo[2,1-f][1,2,4]triazin-4-yl}-3-fluoropyridin-4-amine] | 0.46 |
| CCOc1cccc(-c2nc(Nc3ccncc3F)c3cccn3n2)n1 [Example 102, N-[2-(6-ethoxypyridin-2-yl)pyrrolo[2,1-f][1,2,4]triazin-4-yl]-3-fluoropyridin-4-amine] | 15 |
| Cc1cccc(-c2nc(Nc3ccncc3C(=O)NCCCN3CCS(=O)(=O)CC3)c3cccn3n2)n1 [Example 36, N-(3-(1,1-dioxidothiomorpholino)propyl)-4-((2-(6-methylpyridin-2-yl)pyrrolo[2,1-f][1,2,4]triazin-4-yl)amino)nicotinamide] | 3 |
| Fc1cccc(-c2nc(Nc3ccncc3)c3cccn3n2)n1 [Example 213, N-[2-(6-fluoropyridin-2-yl)pyrrolo[2,1-f][1,2,4]triazin-4-yl]pyridin-4-amine] | 14 |
| O=C(NCCCN1CCS(=O)(=O)CC1)c1cnccc1Nc1nc(-c2cccc(C(F)F)n2)nn2cccc12 [Example 168, 4-({2-[6-(difluoromethyl)pyridin-2-yl]pyrrolo[2,1-f][1,2,4]triazin-4-yl}amino)-N-[3-(1,1-dioxo-1,4-thiomorpholin-4-yl)propyl]pyridine-3-carboxamide] | 8.6 |
| O=C(NC1CCOC1)c1cnccc1Nc1nc(-c2cccc(C(F)F)n2)nn2cccc12 (stereo not drawn) [Example 177, 4-({2-[6-(difluoromethyl)pyridin-2-yl]pyrrolo[2,1-f][1,2,4]triazin-4-yl}amino)-N-(oxolan-3-yl)pyridine-3-carboxamide] | 21 |
| Fc1cccc(-c2nc(Nc3ccncc3F)c3cccn3n2)n1 [Example 14, 3-fluoro-N-[2-(6-fluoropyridin-2-yl)pyrrolo[2,1-f][1,2,4]triazin-4-yl]pyridin-4-amine] | 0.79 |
| CC(C)(C)OC(=O)CNC(=O)c1cnccc1Nc1nc(-c2cccc(C(F)F)n2)nn2cccc12 [Example 196, tert-butyl 2-{[4-({2-[6-(difluoromethyl)pyridin-2-yl]pyrrolo[2,1-f][1,2,4]triazin-4-yl}amino)pyridin-3-yl]formamido}acetate] | 230 |
| CC(C)CC(=O)Nc1cc(Nc2nc(-c3cccc(C(F)(F)F)n3)nn3cccc23)ccn1 [Example 314, 3-methyl-N-[4-({2-[6-(trifluoromethyl)pyridin-2-yl]pyrrolo[2,1-f][1,2,4]triazin-4-yl}amino)pyridin-2-yl]butanamide] | 5.6 |
| Fc1cnccc1Nc1nc(-c2cccc(C(F)F)n2)nn2ccc(CN3CCC(F)(F)CC3)c12 [Example 23, N-{2-[6-(difluoromethyl)pyridin-2-yl]-5-[(4,4-difluoropiperidin-1-yl)methyl]pyrrolo[2,1-f][1,2,4]triazin-4-yl}-3-fluoropyridin-4-amine] | 1.1 |
| COc1cccc(-c2nc(Nc3ccncc3F)c3c(CCO)ccn3n2)n1 [Example 46, 2-{4-[(3-fluoropyridin-4-yl)amino]-2-(6-methoxypyridin-2-yl)pyrrolo[2,1-f][1,2,4]triazin-5-yl}ethan-1-ol] | 3 |
| COc1cccc(-c2nc(Nc3ccnc(NCCCN(C)C)c3)c3cccn3n2)n1 [Example 135, 2-N-[3-(dimethylamino)propyl]-4-N-[2-(6-methoxypyridin-2-yl)pyrrolo[2,1-f][1,2,4]triazin-4-yl]pyridine-2,4-diamine] | 88 |
| CC(C)(C)OC(=O)N1CCN(CCNC(=O)c2cnccc2Nc2nc(-c3ccccn3)nn3cccc23)CC1 [Example 145, tert-butyl 4-{2-[(4-{[2-(pyridin-2-yl)pyrrolo[2,1-f][1,2,4]triazin-4-yl]amino}pyridin-3-yl)formamido]ethyl}piperazine-1-carboxylate] | 210 |
| CN1CCC(CCNCc2ccn3nc(-c4ccccn4)nc(Nc4ccncc4F)c23)CC1 [Example 303, 3-fluoro-N-[5-({[2-(1-methylpiperidin-4-yl)ethyl]amino}methyl)-2-(pyridin-2-yl)pyrrolo[2,1-f][1,2,4]triazin-4-yl]pyridin-4-amine] | 5.4 |
| Cc1cccc(-c2nc(Nc3ccncc3C(=O)NCCN3CCCCC3)c3cccn3n2)n1 [Example 155, 4-{[2-(6-methylpyridin-2-yl)pyrrolo[2,1-f][1,2,4]triazin-4-yl]amino}-N-[2-(piperidin-1-yl)ethyl]pyridine-3-carboxamide] | 6.8 |
| FC(F)(F)c1cccc(-c2nc(Nc3ccnc(Cl)c3)c3cccn3n2)n1 [Example 82, 2-chloro-N-{2-[6-(trifluoromethyl)pyridin-2-yl]pyrrolo[2,1-f][1,2,4]triazin-4-yl}pyridin-4-amine] | 2700 |
